# Data from patent publication US4450269A, “Mono-5-substituted-3-chloro-4H-1,2,6-thiadiazin-4-one antifungal agents” (FMC Corporation, priority 1980, dated 1984).
# Assays:
# Sclerotinia fructicola = assay: Mycelial growth test; format: cell-based; conditions: Sclerotinia, 72 h, SF, read-out: Percent Fungus Growth Inhibition
# Description: | SF = Sclerotinia fructicola
# Cercospora beticola = assay: whole plant or invertebrate; conditions: in Beta vulgaris, foliar, 24 h, read-out: Percent Disease Control, curative, sugar beet leaf spot
# Fusarium solani = assay: Soil treatment, bean root rot; format: in vivo; conditions: Fusarium solani, soil, 336 h; 150 ppm suspension, 3.8 mg active per pot; read-out: Percent Disease Control, seed/soil, bean root rot
# Description: In a similar manner the soil around a bean seedling was drenched with a sufficient amount of 150 ppm suspension of test chemical to provide 3.8 mg active per pot. Twenty-four hours later the soil was inoculated with a suspension of minced mycelium of Fusarium solani. The inoculated plants were then placed in a greenhouse, evaluated after fourteen days, and percent control of root rot damage calculated. The results, reported in Table III, indicate only a few of the compounds tested are effective in treating Bean Root Rot but that these provide a high degree of control.
# Cladosporium cucumerinum = assay: Spore germination test; format: cell-based; conditions: CC, 48 hours
# Procedure, shortened: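 Compound in acetone mixed into water agar at 40, 10, 2.5 and 1 ppm; plates seeded with spore suspension and incubated 48 hours at 24 °C. Percentage germinated spores counted and converted into a germination rating.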
Structure (SMILES),inhibition at 5 ppm (Sclerotinia fructicola) [%],inhibition at 10 ppm (Sclerotinia fructicola) [%],inhibition at 20 ppm (Sclerotinia fructicola) [%],inhibition at 40 ppm (Sclerotinia fructicola) [%],pest or weed control at 150 ppm (Cercospora beticola) [%],"pest or weed control at 150 ppm, 3.8 mg/pot (Fusarium solani) [%]",Spore Germination Rating (Cladosporium cucumerinum; 1.0 ppm),Spore Germination Rating (Cladosporium cucumerinum; 2.5 ppm),Spore Germination Rating (Cladosporium cucumerinum; 10 ppm),Spore Germination Rating (Cladosporium cucumerinum; 40 ppm)
"O=c1c(Cl)nsnc1Oc1ccc(Cl)c(Cl)c1 [Compound 16, 3-chloro-5-(3,4-dichlorophenoxy)-4H--1,2,6-thiadiazin-4-one]",64,67,67,67,95,0,0 (0-10),0 (0-10),0 (0-10),0 (0-10)
"CC(C)(C)c1ccc(Oc2nsnc(Cl)c2=O)cc1 [Compound 4, 3-chloro-5-(4-tert-butylphnoxy)-4H--1,2,6-thiadiazin-4-one]",0,0,4,0,0,0,4 (80-100),4 (80-100),0 (0-10),0 (0-10)
"COc1ccc(Oc2nsnc(Cl)c2=O)cc1 [Compound 5, 3-chloro-5-(4-methoxyphenoxy)4H--1,2,6-thiadiazin-4-one]",27,42,67,73,0,50,4 (80-100),4 (80-100),0 (0-10),0 (0-10)
"O=c1c(Cl)nsnc1Oc1ccccc1Cl [Compound 14, 3-chloro-5-(2-chlorophenoxy)-4H--1,2,6-thiadiazin-4-one]",47,64,87,100,0,90,4 (80-100),0 (0-10),0 (0-10),0 (0-10)
"CC(=O)Nc1ccccc1Oc1nsnc(Cl)c1=O [Compound 43, 3-[(2-acetylamino)-phenoxy]-5-chloro-4H--1,2,6-thiadiazin-4-one]",0,0,17,22,90,0,4 (80-100),4 (80-100),2 (40-60),0 (0-10)
"O=C(O)Cc1ccccc1Oc1nsnc(Cl)c1=O [Compound 45, 3-(2-carboxymethylphenoxy)-5-chloro-4H--1,2,6-thiadiazin-4-one]",9,3,38,59,90,90,4 (80-100),4 (80-100),2 (40-60),0 (0-10)
"O=c1c(Cl)nsnc1Oc1cccc(Cl)c1 [Compound 13, 3-chloro-5-(3-chlorophenoxy)-4H--1,2,6-thiadiazin-4-one]",51,67,100,100,98,75,2 (40-60),0 (0-10),0 (0-10),0 (0-10)
"O=C(O)c1ccc(Oc2nsnc(Cl)c2=O)cc1 [Compound 50, 3-(4-carboxyphenoxy)-5-chloro-4H--1,2,6-thiadiazin-4-one]",59,47,94,100,50,0,3 (60-80),3 (60-80),3 (60-80),2 (40-60)
"CC(=O)Nc1ccc(Oc2nsnc(Cl)c2=O)cc1 [Compound 8, 5-(4-acetylaminophenoxy)-3-chloro-4H--1,2,6-thiadiazin-4-one]",0,0,51,60,0,0,4 (80-100),3 (60-80),0 (0-10),0 (0-10)
"Cc1cc(Cl)c(Oc2nsnc(Cl)c2=O)cc1C [Compound 58, 3-chloro-5-[(2-chloro-4,5-dimethyl)phenoxy]-4H--1,2,6-thiadiazin-4-one]",56,65,68,71,0,0,3 (60-80),0 (0-10),0 (0-10),0 (0-10)
"O=c1c(Cl)nsnc1Oc1ccc(Cl)cc1 [Compound 12, 3-chloro-5-(4-chlorophenoxy)-4H--1,2,6-thiadiazin-4-one]",64,82,100,100,95,0,2 (40-60),0 (0-10),0 (0-10),0 (0-10)
"CNC(=O)Nc1ccc(Oc2nsnc(Cl)c2=O)cc1 [Compound 28, 3-chloro-5-[4-(3-methylureido)-phenoxy]-4H--1,2,6-thiadiazin-4-one]",17,28,0,62,0,95,2 (40-60),2 (40-60),1 (10-40),0 (0-10)
"O=c1c(Cl)nsnc1Oc1ccccc1 [Compound 2, 3-chloro-5-phenoxy-4H--1,2,6-thiadiazin-4-one]",52,67,100,100,0,100,4 (80-100),4 (80-100),0 (0-10),0 (0-10)
"Cc1ccccc1Oc1nsnc(Cl)c1=O [Compound 22, 3-chloro-5-(2-methylphenoxy)-4H--1,2,6-thiadiazin-4-one]",24,100,100,100,0,0,0 (0-10),0 (0-10),0 (0-10),0 (0-10)
"CCOC(=O)c1ccc(Oc2nsnc(Cl)c2=O)cc1 [Compound 7, 3-chloro-5-(4-ethoxycarbonylphenoxy)-4H--1,2,6-thiadiazin-4-one]",54,100,100,100,75,98,0 (0-10),0 (0-10),0 (0-10),1 (10-40)
"O=C(Nc1ccccc1)Nc1ccc(Oc2nsnc(Cl)c2=O)cc1 [Compound 29, 3-chloro-5-[4-(3-phenylureido)-phenoxy]-4H--1,2,6-thiadiazin-4-one]",28,31,0,7,95,0,2 (40-60),2 (40-60),2 (40-60),1 (10-40)
"O=c1c(Cl)nsnc1Oc1ccc(F)cc1 [Compound 11, 3-chloro-5-(4-fluorophenoxy)-4H--1,2,6-thiadiazin-4-one]",100,100,100,100,0,0,0 (0-10),0 (0-10),0 (0-10),0 (0-10)
